Structures are written as SMILES.

For one series, the system named is contact hypersensitivity. In words: Contact hypersensitivity model in mouse (atopic dermatitis model). Format: in vivo. To be noted: po, 30 minutes before causal induction, 24 hours, read-out: Control % (intumescence of the pinna, untreated = 100); for response vs control in vivo at 20 mg/kg: 20 mg/Kg p.o.; for response vs control in vivo at 3 mg/kg: 3 mg/Kg p.o. The method, then:
[Contact hypersensitivity model in mouse (Atopic dermatisis model)]
Test was conducted by referring to the method as described in "HIFU (a Japanese journal of dermatology)" Vol. 35, Supplemental Issue No. 15, pp. 96-106, published on March 1993.
CBA/J strain mice of 6-8 week age were used as the test animals (6-8 mice in one group). The mouse was sensitized by coating 150 μl of 5% of picryl chloride [dissolved in a mixture of acetone with olive oil (1:4)] on the shaved portion of skin in the back of mouse. […] 24 Hours after the causal induction, the effect for inhibiting contact hypersensitivity performed by the test compounds were evaluated by referring to the action for inhibiting intumescence of the pinna as an indication. The test compound was orally administered 30 minutes before the causal induction.
The following compounds were used for the test.
1) Compounds of the Present Invention:
(Dosage: 20 mg/Kg p.o., which is 7-10 times larger amount of dosages for compounds of the present invention)
The value obtained from the sensitization test without administration of the test compound was referred to as 100, and by comparing with the values obtained from the sensitization test with administration of the test compound was referred to "% control" values.

Series [1] deals with formation of NO in cell strain RAW 264.7. In words: Activity for inhibiting the formation of NO (LPS-stimulated RAW 264.7 cells, Griess reagent). Format: cell-based. To be noted: Mus musculus, RAW264.7, 1 × 10^-6 M, LPS 100 ng/ml, 24 hours, read-out: Ratio of formed amount of NO (reference culture medium = 100). As for the experimental part: [Evaluation test of activity for inhibiting the formation of NO]
Pharmacological tests of pyrimidine derivatives obtained in Examples 1, 12, 14, 19, 22, 24, 29 and 42 used as test compounds were conducted as follows.
Preparation of culture media and method of cell culture were conducted in accordance with those described in J. Biol. Chem., Vol. 269, No. 1, pp. 711-715, (1994), and determination of formed amount of NO was conducted in accordance with the method described in Anal. Biochem., Vol. 126, pp. 131-138, (1982), respectively.
(1) Cell Culture and Inducible Synthesis of NO in the Cells by Stimulation with Lipopolysaccharide (LPS)
Cell strain RAW 264.7 (ATCC) derived from the macrophage of mouse was placed on each one of the wells on a microplate having 24-wells so as to put the cells in an amount of 1×10^5 cells/U (well). The cells were incubated for 24 hours in a phenol red free-RPMI-1640 culture medium (mfd. by GIBCO) to which 10% of fetal bovine serum, 100 U/ml of penicillin (mfd. by Dainippon Pharmaceutical Co., Ltd.) and 100 μg/ml of streptomycin (mfd. by Dainippon Pharmaceutical Co., Ltd.) were added.
Next, the reference culture medium was prepared by adding 2 mM of L-arginine (mfd. by Wako Pure Chemical Industries, Ltd.), 10 μM/ml of tetrahydrobiopterin (mfd. by ALEXIS) and 100 ng/ml of lipopolysaccharide (LPS)(mfd. by Sigma Chemical Co.) to a phenol red free-RPMI-1640 culture medium. While, the reference culture medium without containing LPS was used as the blanc culture medium.
On the other hand, the test culture medium, containing the test compound was prepared by adding 0.2% of the test compounds dissolved in dimethyl sulfoxide (DMSO) to the reference culture medium to adjust the final concentration of the test compound to 1×10^-6 M.
Each one of the blank culture medium, reference culture medium and test culture medium containing the test compound was added, respectively to the well on the micro-plate where the above-mentioned cell strain RAW 264.7 was placed, and was incubated for 24 hours.
(2) Measurement of the Amount of Formed NO
Quantitative measurement of NO cannot be made directly, due to its unstability. Therefore, the amount of NO is measured indirectly, thus by forming nitrous acid ion (hereunder referred to as NO2^-) which is stable product derived from NO by use of Griess reagent [consisting of 1% of sulfanylamide and 0.1% of sulfuric acid solution containing 0.1% N-(1-naphthyl)ethylenediamine dihydrochloride], and measure the amount of NO2^-.
Into the supernatant of each one of the culture media was admixed with the same amount of Griess reagent respectively, and subjected to reaction at room temperature for 10 minutes, then the optical absorbance at 540 nm of the thus reacted culture medium was measured. While, the optical absorbance of sodium nitrite solution diluted with the culture medium was referred to as the standard value, and the amount of NO2^- formed in each one of these incubated culture media was measured. The amounts of NO2^- formed in the reference culture medium and the test culture medium were corrected by using the value of formed amount of NO2^- in the blanc culture medium.
On the basis of that the ratio of amounts of NO2^- formed in the reference culture medium and that of formed in the test culture medium is corresponding to the ratio of amount of NO formed in the reference culture medium and that of formed in the test culture medium. Thus the amount of NO2^- formed in the reference culture medium is referred to as the value of 100, and the value of amount of NO2^- formed in the test culture medium is referred to as amount of NO formed in the test culture medium.
(The Griess reaction detects nitrite, a stable product of nitric oxide.)

The nature of series [2]: Toxicity of compound against the cell strain RAW 264.7 (MTT). Format: cell-based. The conditions noted are these: mouse, raw 264.7 cells, 1 × 10^-6 M, read-out: Ratio of optical absorbance. The method, then: [Toxicity test (Toxicity of compound against the cell strain RAW 264.7)]
Test was conducted in accordance with the method as described in J. Immunol. Methods, Vol. 94, pp. 57-68, (1986). Cell strain RAW 264.7 derived from the macrophage of mouse was incubated similarly as in the method of Test Example 1(1). After that, MTT reagent (5 mg/ml) in 1/10 amount of the culture medium was added to the cells, and incubated for 4 hours. The supernatant of culture medium was taken off, then the cells were collected by using 1% SDS solution and the optical absorbance at 570-630 nm of the SDS solution was measured.

In another series the test system is late asthmatic response. In words: Model experiment of asthma in guinea pigs (inhibition of late asthmatic response). Format: in vivo, guinea pig. To be noted: control 112 ± 17.8. As for the experimental part:
[Model experiment of asthma in guinea pigs. (Inhibition of late asthmatic response)]
Hartley strain female guinea pigs (SLC) having the body weight of about 350 g were used and 50 mg/Kg of cyclophosphamide (mfd. by Sigma Chemical Co.) was injected intraperitoneally. 2 Days after this pretreatment by injection, 1 mg of egg albumin (mfd. by Sigma Chemical Co.) and 100 mg of aluminum hydroxide (Wako Pure Chemical Industries Co., Ltd.) were injected intraperitoneally for sensitization. 3 Weeks after the sensitization, 10 μg of egg albumin and 100 mg of aluminum hydroxide were injected intraperitoneally for booster sensitization. 6 Weeks after the primary sensitization, asthma attach was induced by inhalation and exposure to egg albumin (4 mg/ml) by using a nebulizer (NE-U12: mfd. by Omron Corp.). The asthma reaction was determined by use of a body-plethysmography (using system developed by Uchida lecturer in internal department for respiratory organs at Tsukuba University; air-resist tube, respiratory amplifier and differential pressure transducer (mfd. by Nihon Koden); and osciloscope (mfd. by Iwasaki Tsushin)), so as to determine a […] of specific airway conductance (sGaw) under the condition without anesthesia. The sGaw value just before the administration of test comopound was measured and the value is referred to as 100. Test compound was suspended in 1% HPMC (hydroxymethylpropylcellulose mfd. by Shinetsu Chemical), and was administered orally 30 minutes before the exposure with the antigen. Then, sGaw value was measured in each points until 7 hours after the exposure with the antigen.

For the compound `Oc1cc(CCl)nc2cc(-c3ccccc3)nn12` [(4), 7-Hydroxy-5-chloromethyl-2-phenylpyrazolo[1,5-a]pyrimidine], the response vs control in vivo at 20 mg/kg with contact hypersensitivity is 103%. Turning to `CC(C)(C)OCCOCc1cc(=O)n2ncc(-c3ccc(Sc4ccccc4)cc3)c2[nH]1` [Example 15, 5-(2-t-butoxyethoxymethyl)-4,7-dihydro-7-oxo-3-(4-phenylthiophenyl)pyrazolo[1,5-a]pyrimidine], the response vs control in vivo at 3 mg/kg in the series on contact hypersensitivity is 46.3%.

With `COc1cc(-c2c(-c3ccccn3)nn3c(O)cc(C)nc23)ccc1Sc1ccccc1` [(6), 7-Hydroxy-5-methyl-3-(3-methoxy-4-phenylthiophenyl)-2-(2-pyridyl)pyrazolo[1,5-a]pyrimidine], in the series on contact hypersensitivity, the response vs control in vivo at 20 mg/kg came out at 94.7%. For `Oc1cc(CCl)nc2cc(-c3ccc(Sc4ccccc4)cc3)nn12` [(7), 7-Hydroxy-5-chloromethyl-2-(4-phenylthiophenyl)pyrazolo[1,5-a]pyrimidine], the response vs control in vivo at 20 mg/kg in the series on contact hypersensitivity was 113%. As to `COCc1nn2c(O)ccnc2c1-c1ccc(Sc2ccccc2)cc1` [(3), 7-Hydroxy-2-methoxymethyl-3-(4-phenylthiophenyl)pyrazolo[1,5-a]pyrimidine], the response vs control in vivo at 20 mg/kg with contact hypersensitivity was found to be 104%.

As to `O=c1cc(COc2ccccc2)[nH]c2c(-c3ccc(Sc4ccccc4)cc3)cnn12` [Example 12, 4,7-dihydro-7-oxo-5-phenoxymethyl-3-(4-phenylthiophenyl)pyrazolo[1,5-a]pyrimidine], the activity at 1 µM in series [1] was found to be 67%. In addition, the viability at 1 µM in series [2] stood at 103%. On to `COCc1cc(=O)n2nc(COC)c(-c3ccc(Sc4ccccc4)cc3)c2[nH]1` [Example 42, 2,5-bis(methoxymethyl)-4,7-dihydro-7-oxo-3-(4-phenylthiophenyl)pyrazolo[1,5-a]-pyrimidine], for which, in series [1], the activity at 1 µM turned out to be 55.4%. For `C[C@]12C=CC(=O)C=C1CC[C@@H]1[C@@H]2[C@@H](O)C[C@@]2(C)[C@H]1CC[C@]2(O)C(=O)CO` [Prednizolone], the “AUC (4-7 hours) of sGaw reaction” value in the series on late asthmatic response (30 mg/Kg orally 30 minutes before antigen, 8 animals) was determined as 15.6 ± 3.5. With `Oc1cc(C2CC2)nc2c(-c3ccc(Sc4ccccc4)cc3)cnn12` [(1), 7-Hydroxy-5-cyclopropyl-3-(4-phenylthiophenyl)pyrazolo[1,5-a]pyrimidine], the response vs control in vivo at 20 mg/kg in the series with contact hypersensitivity was 99%. `COC(OC)c1cc(=O)n2ncc(-c3ccc(Sc4ccccc4)cc3)c2[nH]1` [Example 24, 4,7-dihydro-5-dimethoxymethyl-7-oxo-3-(4-phenylthiophenyl)pyrazolo[1,5-a]pyrimidine]: the activity at 1 µM in series [1] worked out at 67.3%. For the same compound, the viability at 1 µM in series [2] stood at 108%.

For the compound `COCCOCc1cc(=O)n2ncc(-c3ccc(Sc4ccccc4)cc3)c2[nH]1` [Example 14, 4,7-dihydro-5-(2-methoxyethoxymethyl)-7-oxo-3-(4-phenylthiophenyl)pyrazolo[1,5-a]pyrimidine], the activity at 1 µM in series [1] came out at 64.4%. For the same compound, in series [2], the viability at 1 µM was 94.2%.

For the compound `CSCc1cc(=O)n2ncc(-c3ccc(Sc4ccccc4)cc3)c2[nH]1` [Example 29, 4,7-dihydro-5-methylthiomethyl-7-oxo-3-(4-phenylthiophenyl)pyrazolo[1,5-a]pyrimidine], the activity at 1 µM in series [1] was 52.2%. Further, the viability at 1 µM in series [2] was 89.7%. Take `O=c1cc(C2CCCO2)[nH]c2c(-c3ccc(Sc4ccccc4)cc3)cnn12` (stereo not drawn) [Example 19, 4,7-dihydro-7-oxo-3-(4-phenylthiophenyl)-5-(tetrahydrofuran-2-yl)pyrazolo[1,5-a]pyrimidine]: the response vs control in vivo at 3 mg/kg in the series with contact hypersensitivity turned out to be 44.7%. In addition, in series [1], the activity at 1 µM worked out at 63.1%. For the compound `Cc1cc(O)n2ncc(-c3ccc(Sc4ccccc4)cc3)c2n1` [(2), 7-Hydroxy-5-methyl-3-(4-phenylthiophenyl)pyrazolo[1,5-a]pyrimidine], in the series with contact hypersensitivity, the response vs control in vivo at 20 mg/kg came out at 90%. As to `COCCc1cc(=O)n2ncc(-c3ccc(Sc4ccccc4)cc3)c2[nH]1` [Example 22, 4,7-dihydro-5-(2-methoxyethyl)-7-oxo-3-(4-phenylthiophenyl)pyrazolo[1,5-a]pyrimidine], the activity at 1 µM in series [1] came out at 60.3%. Further, the viability at 1 µM in series [2] worked out at 101%. `Oc1ccnc2c(-c3ccc(Sc4ccccc4)cc3)cnn12` [(8), 7-Hydroxy-3-(4-phenylthiophenyl)pyrazolo[1,5-a]pyrimidine]: in the series with contact hypersensitivity, the response vs control in vivo at 20 mg/kg was determined as 100%. The “AUC (4-7 hours) of sGaw reaction” value with late asthmatic response (39 mg/Kg (so in the source) orally 30 minutes before antigen, 3 animals) turned out to be 127.9 ± 45.4. `Oc1ccnc2c(-c3cccc(C(F)(F)F)c3)cnn12` [(5), 7-Hydroxy-3-(3-trifluoromethylphenyl)pyrazolo [1,5-a]pyrimidine]: the response vs control in vivo at 20 mg/kg in the series with contact hypersensitivity turned out to be 90.4%.

Values taken from patent US6197774A, “Pyrimidine derivative” (Otsuka Pharmaceutical Co., Ltd., priority 1997, dated 2001).
